Test results taken from patent US20050215635A1, “Diarylheptanoid compounds and uses thereof” (priority 2004, published 2005).

Assays:
iNOS protein expression = assay: Western blotting of iNOS protein expression in RAW 264.7 cells; assay type: cell-based, mouse; settings: HMP 12.5 and 25 μM + LPS (0.5 μg/ml), RAW 264.7, 18 hrs
Procedure: (§1) FIG. 3. Inhibition of LPS induced iNOS and COX-2 protein expression by HMP. RAW 264.7 cells were treated with various concentrations of HMP and/or LPS (0.5 μg/ml) for 18 h. Total-cell lysate (40 μg) was resolved in 8-10% SDS-PAGE then transferred to PVDF membrane and detected with specific antibodies as described in Section 6. This experiment was repeated 4 times with similar observations. Lane-1, Control (without any treatment); 2, LPS (0.5 μg/ml); 3, LPS and HMP 25 μM; 4, LPS and HMP-12.5 μM.
(§2) At indicated time points, cells were rapidly washed with ice-cold PBS and solubilized in cold lysis buffer containing 10 mM Tris-base, 5 mM EDTA, 50 mM NaCl, 1% Triton X-100, 5 mM phenylmethylsulfonyl fluoride (PMSF), 2 mM sodium orthovanadate, 10 μg/ml leupeptin, 25 μg/ml aprotinin, 1 mM sodium pyrophosphate, and 20% glycerol. […]
(§3) Equal amount of protein (40 μg) from each sample was loaded on SDS-polyacrylamide electrophoresis gel (8 and 10% separating gels for iNOS and p42/44^MAPK, respectively) and resolved for 1.5 h at 120 V in buffer containing 95 mM Tris-HCl, 960 mM glycine, and 0.5% SDS. […] Specific bands were detected by enhanced chemiluminescence's detection system (Amersham-Pharmacia biotech, NJ, USA) and the membrane was exposed to X-ray film. […]

[1] = test system: p44/42 MAPK phosphorylation; assay: Western blotting of LPS induced phosphorylation of p44/42 MAPK in RAW 264.7 cells; assay type: cell-based, mouse; settings: HMP 25 μM + LPS (0.5 μg/ml), RAW 264.7, 30 min (not at 60 min)
Procedure: (§4) FIG. 5A and 5B. Effect of HMP on LPS induced MAPKs activation. FIG. 5A, Total protein lysates of RAW 264.7 were prepared after treatment with HMP and/or LPS for indicated times and 40 μg of protein lysates were resolved and probed for phosphorylated (pp44/42 and pp38) and basal p44/42 and p38, using specific monoclonal antibodies as described in material and methods. FIG. 5B, Integrated density of phosphorylated p44/42 (pp44/42) as measured by Scion software. This experiment was repeated 4 times with similar results.
as §2, §3

[2] = test system: LPS induced NO production from mouse macrophage cells (RAW 264.7); assay: Nitric oxide measurement (nitrite, Griess reagent) in LPS-treated RAW 264.7 cells; assay type: cell-based; settings: RAW 264.7, 24 hrs
Procedure: The mouse macrophage cells (RAW 264.7) were cultured in DMEM supplemented with 15% fetal bovine serum (FBS) and antibiotic and antimycotic mixture. The cell suspension of 50,000 cells/well was cultured in flat bottom microtitre plate in quadruplicate for 12 hrs. Thereafter, 100 μl of media was replaced with fresh medium containing either LPS (0.5 μg/ml) alone or LPS with various concentrations of HMP and further cultured for 24 hrs. The culture supernatant was collected at the end of culture for nitrite assay, which was used as a measure of NO production. Culture supernatant (100 μl) was mixed with equal volume of Griess reagent (SIGMA, MO, USA) and the absorbance was measured at 570 nm. The concentration of nitrite (μM) was calculated from standard curve drawn with known concentration of sodium nitrite dissolved in DMEM. The results are presented as mean ±SD of 4 replicates of one representative experiment and this experiment was repeated 5 times. For the NO assay, RAW 264.7 cells were treated with LPS (0.5 μg/ml) and/or various concentrations of HMP for 24 hrs and amount of nitrite in supernatant from each treatment group was measured using Griess reagent. Each data point represents mean+standard deviation (SD) of 5 replicates of one representative experiment of total 6 experiments.

COX-2 protein expression = assay: Western blotting of COX-2 protein expression in RAW 264.7 cells; assay type: cell-based, mouse; settings: HMP 12.5 and 25 μM + LPS (0.5 μg/ml), RAW 264.7, 18 hrs
Procedure: as §1, §2, §3

p38 MAPK phosphorylation = assay: Western blotting of LPS induced phosphorylation of p38 MAPK in RAW 264.7 cells; assay type: cell-based, mouse; settings: HMP 25 μM + LPS (0.5 μg/ml), RAW 264.7, 30 min and 60 min
Procedure: as §4, §2, §3

COc1cc(CC/C=C/C(=O)CCc2ccccc2)ccc1O [AO-4, 7-(4″-hydroxy-3″-methoxyphenyl)-1-phenyl-hept-4-en-3-one]
LPS induced iNOS protein expression (Western blot, in words) (iNOS protein expression): markedly inhibited | LPS-induced phosphorylation of p44/42 MAPK (in words) [1]: markedly inhibited | Nitrite ([2]; HMP 6.25 μM + LPS (0.5 μg/ml)): 14.54 ± 2.5 µM | Nitrite ([2]; HMP 6.25 μM alone): 3.66 ± 1.08 µM | Nitrite ([2]; HMP 12.5 μM + LPS (0.5 μg/ml)): 13.75 ± 2.65 µM | Nitrite ([2]; HMP 12.5 μM alone): 3.88 ± 1.14 µM | Nitrite ([2]; HMP 25 μM + LPS (0.5 μg/ml)): 9.95 ± 1.41 µM | Nitrite ([2]; HMP 25 μM alone): 3.86 ± 0.97 µM | LPS induced production of nitric oxide (in words) ([2]; HMP 6.25-25 μM + LPS (0.5 μg/ml)): significantly inhibited by HMP in a dose dependent manner | NO production, HMP alone (in words) ([2]; HMP alone): no effect on NO production | LPS induced COX-2 protein expression (Western blot, in words) (COX-2 protein expression): markedly inhibited | LPS induced phosphorylation of p38 (in words) (p38 MAPK phosphorylation): no effect
